In patent publication US10800789B2, “Antiviral compounds” (Gilead Pharmasset LLC, priority 2012, dated 2020):
Like-named read-outs stand apart in the source and are kept apart here.

Key:
[1] = tested on: stable HCV 1b RLuc replicon cells (dicistronic genotype 1b Con1 replicon); experiment: Renilla luciferase HCV replicon reporter assay, genotype 1b; type: cell-based; details: Hepatitis C virus, 72 h, stable 1b Con1 RLuc replicon cells, 72 hours; read-out: 1b
Experimental: (§1) Evaluation of Cell-Based Anti-HCV Activity:
(§2) Antiviral potency (EC50) was determined using a Renilla luciferase (RLuc)-based HCV replicon reporter assay. To perform the assay for genotype 1 and 2a JFH-1, stable HCV 1a RLuc replicon cells (harboring a dicistronic genotype 1a H77 replicon that encodes a RLuc reporter), stable HCV 1b RLuc replicon cells (harboring a dicistronic genotype 1b Con1 replicon that encodes a RLuc reporter), or stable HCV 2a JFH-1 Rluc replicon cells (harboring a dicistronic genotype 2a JFH-1 replicon that encodes a RLuc reporter; with L31 present in NS5A) were dispensed into 384-well plates for EC50 assays. To perform the assay for genotype 2a (with M31 present in NS5A) or 2b, NS5A chimeric genotype 2a JFH-1 replicons that encodes a RLuc-Neo reporter and either genotype 2a J6 strain NS5A gene or genotype 2b MD2b-1 strain NS5A gene (both with M31 present) respectively, were either transiently transfected (t) into Huh-Lunet cells or were established as stably replicating replicon cells (s) is provided. Either cells were dispensed into 384-well plates for EC50 assays. To perform the assay for genotype 3 and 4, NS5A chimeric genotype 1b Con1 replicons that encodes a Pi-RLuc reporter and either genotype 3a S52 strain NS5A gene or genotype 4a ED43 strain NS5A gene respectively, were transiently transfected (t) into Huh-Lunet cells, which were subsequently dispensed into 384-well plates. Compounds were dissolved in DMSO at a concentration of 10 mM and diluted in DMSO either manually or using an automated pipeting instrument. Serially 3-fold diluted compounds were either manually mixed with cell culture media and added to the seeded cells or directly added to the cells using an automated instrument. DMSO was used as a negative (solvent; no inhibition) control, and the protease inhibitor ITMN-191 was included at a concentration>100×EC50 as a positive control. 72 hours later, cells were lysed and Renilla luciferase activity quantified as recommended by the manufacturer (Promega-Madison, Wis.). Non-linear regression was performed to calculate EC50 values.

[2] = tested on: stable HCV 2a JFH-1 Rluc replicon cells (L31 present in NS5A); experiment: Renilla luciferase HCV replicon reporter assay, genotype 2a JFH-1; type: cell-based; details: Hepatitis C virus
Experimental: as §1, §2

[3] = tested on: stable HCV 1a RLuc replicon cells (dicistronic genotype 1a H77 replicon); experiment: Renilla luciferase HCV replicon reporter assay, genotype 1a; type: cell-based; details: Hepatitis C virus, 72 h, stable 1a H77 RLuc replicon cells
Experimental: as §1, §2

[4] = tested on: NS5A chimeric genotype 1b Con1 replicon with genotype 4a ED43 strain NS5A gene; experiment: Replicon assay, genotype 4a NS5A chimera; type: cell-based, HCV; details: Hepatitis C virus
[5] = tested on: NS5A chimeric genotype 1b Con1 replicon with genotype 3a S52 strain NS5A gene; experiment: Replicon assay, genotype 3a NS5A chimera; type: cell-based, HCV; details: Hepatitis C virus
[6] = tested on: NS5A chimeric genotype 2a JFH-1 replicon with genotype 2b MD2b-1 strain NS5A gene (M31 present); experiment: Replicon assay, genotype 2b NS5A chimera; type: cell-based, HCV; details: Hepatitis C virus
Experimental: as §1, §2

[7] = tested on: NS5A chimeric genotype 2a JFH-1 replicon with genotype 2a J6 strain NS5A gene (M31 present); experiment: Replicon assay, genotype 2a J6 NS5A chimera; type: cell-based, HCV; details: Hepatitis C virus
Experimental: as §1, §2

[8] = read-out: 2a JFH (nM), genotype 2a JFH-1 replicon (L31 in NS5A), stable cells
[9] = read-out: 2a JFH, stable 2a JFH-1 Rluc replicon cells, L31 in NS5A, activity range
[10] = read-out: 4a (s) (nM), genotype 4a NS5A chimeric replicon, stable replicon cells (s)
[11] = read-out: 4a (s), (s), activity range
[12] = read-out: 3a (s) (nM), genotype 3a NS5A chimeric replicon, stable replicon cells (s)
[13] = read-out: 3a (s), (s), activity range
[14] = 2BS, read-out: 2b (s), stably replicating replicon cells (s), activity range
[15] = read-out: 2b (s) (nM), genotype 2b MD2b-1 NS5A chimeric replicon (M31), stably replicating replicon cells (s)
[16] = read-out: 2a J6 (t) (nM), genotype 2a J6 NS5A chimeric replicon (M31), transiently transfected (t) into Huh-Lunet cells
[17] = read-out: 2a J6 (t), transiently transfected (t) into Huh-Lunet cells, activity range

Row | SMILES | EC50 [1] | EC50 [2, 8] | EC50 [2, 9] | EC50 [3] | EC50 ([3]; activity range) | EC50 [4, 10] | EC50 [4, 11] | EC50 [5, 12] | EC50 [5, 13] | EC50 [6, 14] | EC50 [6, 15] | EC50 [7, 16] | EC50 [7, 17] | EC50 ([6]; read-out: 2b (t) (nM), genotype 2b MD2b-1 NS5A chimeric replicon (M31), transiently transfected (t)) | EC50 ([6]; read-out: 2b (t), transiently transfected (t) into Huh-Lunet cells, activity range) | EC50 ([5]; read-out: 3a (t) (nM), genotype 3a NS5A chimeric replicon, transiently transfected (t)) | EC50 ([5]; read-out: 3a (t), transiently transfected (t) into Huh-Lunet cells, activity range)
1 | CC[C@H]1CC[C@@H](c2ncc(-c3ccc4c(c3)COc3cc5c(ccc6nc([C@@H]7C[C@H](C)CN7C(=O)[C@@H](NC(=O)OC)C(C)C)[nH]c65)cc3-4)[nH]2)N1C(=O)[C@@H](NC(=O)OC)C1CCOCC1 [IC] | 0.027 nM | 0.02 nM | < 0.1 nM | 0.024 nM | < 0.1 nM | 0.012 nM | < 0.1 nM | 0.116 nM | 0.1 to 0.999 nM | 0.1 to 0.999 nM | 0.122 nM | 0.052 nM | < 0.1 nM |  |  |  | 
2 | COC[C@H]1C[C@@H](c2ncc(-c3ccc4c(c3)COc3cc5c(ccc6nc([C@@H]7C[C@H](COC)CN7C(=O)[C@@H](NC(=O)OC)[C@@H](C)OC)[nH]c65)cc3-4)[nH]2)N(C(=O)[C@@H](NC(=O)OC)[C@@H](C)OC)C1 [EX, Methyl {(2S,3R)-3-methoxy-1-[(2S,4S)-2-(9-{2-[(2S,4S)-1-[N-(methoxycarbonyl)-O-methyl-L-threonyl]-4-(methoxymethyl)pyrrolidin-2-yl]-1H-imidazol-5-yl}-1,11-dihydroisochromeno[4′,3′:6,7]naphtho[1,2-d]imidazol-2-yl)-4-(methoxymethyl)pyrrolidin-1-yl]-1-oxobutan-2-yl}carbamate] | 0.197 nM | 0.027 nM | < 0.1 nM | 0.079 nM | < 0.1 nM | 0.072 nM | < 0.1 nM | 1.69 nM | 1 to 44 nM | 0.1 to 0.999 nM | 0.393 nM | 0.052 nM | < 0.1 nM |  |  |  | 
3 | COC(=O)N[C@H](C(=O)N1C[C@@H](C)C[C@H]1c1ncc(-c2ccc3c(c2)COc2cc4c(ccc5nc([C@@H]6CC[C@H](C)N6C(=O)[C@@H](NC(=O)OC)[C@@H](C)OC)[nH]c54)cc2-3)[nH]1)[C@@H](C)OC [DZ, Methyl [(2S,3R)-3-methoxy-1-{(2S,5S)-2-[9-(2-{(2S,5S)-1-[N-(methoxycarbonyl)-O-methyl-L-threonyl]-4-methylpyrrolidin-2-yl}-1H-imidazol-5-yl)-1,11-dihydroisochromeno[4′,3′:6,7]naphtho[1,2-d]imidazol-2-yl]-5-methylpyrrolidin-1-yl}-1-oxobutan-2-yl]carbamate] | 0.035 nM | 0.016 nM | < 0.1 nM | 0.021 nM | < 0.1 nM | 0.02 nM | < 0.1 nM | 0.089 nM | < 0.1 nM | 0.1 to 0.999 nM | 0.173 nM | 0.054 nM | < 0.1 nM | 0.072 nM | < 0.1 nM |  | 
4 | CC[C@H]1C[C@@H](c2nc3ccc4cc5c(cc4c3[nH]2)OCc2cc(-c3cnc([C@@H]4CC[C@H](C)N4C(=O)[C@@H](NC(=O)OC)C(C)C)[nH]3)ccc2-5)N(C(=O)[C@H](C)NC(=O)OC)C1 [HK] | 0.026 nM | 0.034 nM | < 0.1 nM | 0.017 nM | < 0.1 nM | 0.02 nM | < 0.1 nM | 0.705 nM | 0.1 to 0.999 nM | 1 to 44 nM | 11.5 nM | 0.878 nM | 0.1 to 0.999 nM |  |  |  | 
5 | CC[C@H]1CC[C@@H](c2ncc(-c3ccc4c(c3)COc3cc5c(ccc6nc([C@@H]7CC[C@H](C)N7C(=O)[C@@H](NC(=O)OC)[C@@H](C)OC)[nH]c65)cc3-4)[nH]2)N1C(=O)[C@@H](NC(=O)OC)[C@@H](C)OC [EM, methyl[(2S,3R)-1-{(2S,5S)-2-ethyl-5-[5-(2-{(2S,5S)-1-[N-(methoxycarbonyl)-O-methyl-L-threonyl]-5-methylpyrrolidin-2-yl}-1,11dihydroisochromeno[4′,3′:6,7]naphtho[1,2-d]imidazol-9-yl)-1H-imidazol-2-yl]pyrrolidin-1-yl}-3-methoxy-1-oxobutan-2-yl]carbamate] | 0.02 nM | 0.012 nM | < 0.1 nM | 0.013 nM | < 0.1 nM | 0.008 nM | < 0.1 nM | 0.061 nM | < 0.1 nM | < 0.1 nM | 0.082 nM | 0.043 nM | < 0.1 nM |  |  |  | 
6 | CC[C@H]1CC[C@@H](c2nc3ccc4cc5c(cc4c3[nH]2)OCc2cc(-c3cnc([C@@H]4CC[C@H](C)N4C(=O)[C@@H](NC(=O)OC)C(C)C)[nH]3)ccc2-5)N1C(=O)[C@@H](NC(=O)OC)C(C)C [IF] | 0.021 nM | 0.026 nM | < 0.1 nM | 0.016 nM | < 0.1 nM | 0.017 nM | < 0.1 nM | 0.35 nM | 0.1 to 0.999 nM | 0.1 to 0.999 nM | 0.691 nM | 0.84 nM | 0.1 to 0.999 nM |  |  |  | 
7 | COC(=O)N[C@H](C(=O)N1[C@@H](C)CC[C@H]1c1nc2ccc3cc4c(cc3c2[nH]1)OCc1cc(-c2cnc([C@@H]3[C@@H]5C[C@@H]5CN3C(=O)[C@@H](NC(=O)OC)[C@@H](C)OC)[nH]2)ccc1-4)C(C)C [HP] | 0.026 nM | 0.014 nM | < 0.1 nM | 0.019 nM | < 0.1 nM | 0.023 nM | < 0.1 nM | 0.079 nM | < 0.1 nM | 1 to 44 nM | 1.02 nM | 0.22 nM | 0.1 to 0.999 nM |  |  |  | 
8 | COC[C@H]1C[C@@H](c2nc3ccc4cc5c(cc4c3[nH]2)OCc2cc(-c3cnc([C@@H]4CC[C@H](C)N4C(=O)[C@@H](NC(=O)OC)C(C)C)[nH]3)ccc2-5)N(C(=O)[C@@H](NC(=O)OC)C2CCOCC2)C1 [EF, methyl[(1 S)-2-[(2S,4S)-2-(9-{2-[(2S,5S)-1-{(2S)-2-[(methoxycarbonyl)amino]-3-methylbutanoyl}-5-methylpyrrolidin-2-yl]-1H-imidazol-5-yl}-1,11 dihydroisochromeno[4′,3′:6,7]naphtho[1,2-d]imidazol-2-yl)-4-(methoxymethyl)pyrrolidin-1-yl]-2-oxo-1-(tetra hydro-2H-pyran-4-yl)ethyl]carbamate] | 0.053 nM | 0.014 nM | < 0.1 nM | 0.039 nM | < 0.1 nM | 0.02 nM | < 0.1 nM | 0.12 nM | 0.1 to 0.999 nM | < 0.1 nM | 0.091 nM | 0.023 nM | < 0.1 nM |  |  | 0.102 nM | 0.1 to 0.999 nM
9 | COC(=O)N[C@H](C(=O)N1C[C@@H](F)C[C@H]1c1ncc(-c2ccc3c(c2)COc2cc4c(ccc5nc([C@@H]6CC[C@H](C)N6C(=O)[C@@H](NC(=O)OC)C(C)C)[nH]c54)cc2-3)[nH]1)C(C)C [HS] | 0.023 nM | 0.022 nM | < 0.1 nM | 0.011 nM | < 0.1 nM | 0.008 nM | < 0.1 nM | 0.082 nM | < 0.1 nM | 1 to 44 nM | 3.37 nM | 4.14 nM | 1 to 44 nM |  |  |  | 
